Laboratory results taken from patent publication US20230257385A1, “SALT AND SOLID FORMS OF TABERNANTHALOG” (priority 2021, published 2023).

What was measured:
[1] = Suspension equilibration of sorbate salt at 20 and 40° C. (Example 10, Experiments 3, 4, 9); type: physicochemical; conditions: for Observations (t = 1 d @ 40° C.) / Observations (t = 10 d @ 40° C.): sorbate salt Form A in 5 vol solvent; for Observations (t = 1 d @ 40° C.) / Observations (t = 10 d @ 40° C.) / Observations (t = 0 @ 40° C.) / XRPD (IPC, 6 d, wet) / XRPD (post oven dried): one solvent per sample; for Observations (t = 0 @ 40° C.): sorbate salt Form A, ca. 50 mg in 5 vol solvent; for XRPD (IPC, 6 d, wet): moist pellet after 6 d; for XRPD (post oven dried): pellet after oven drying
Description: The purpose of this panel is to determine if Form A evolves into a supra-ordinate form. The companion panel at 40° C. set-point is in place to detect enantiotropic behaviour via different relative proportions in different solvents. XRPD data of the moist pellets obtained from the suspension equilibration study at 20° C.
The relevant solvent (5 vol) was added to the appropriate vial and the suspensions were stirred and warmed to the predetermined temperature with stirring. […]

[2] = Dynamic vapour sorption (DVS) of selected salts (Example 8); type: physicochemical
Description: DVS: The moisture sorption properties of the feed API were analyzed by DVS Intrinsic instrument (Surface Measurement System). Approximately 20-50 mg of API was weighed on an aluminum pan and loaded into the instrument equilibrated at 25° C. The sample was allowed to equilibrate under dry atmosphere (0% relative humidity) for 60 minutes before increasing the humidity from 0% to 30% at 5% step increment and from 30% to 90% at 10% step increment. A desorption cycle was also applied from 90% to 30% (10% step) and from 30% to 0% (5% decrement). A rate of change in mass per time unit (dm/dt) of 0.002%/min was set as the equilibrium parameter. Kinetic and isotherm graphs were calculated.

[3] = suspension equilibration at 40° C.

Which “Observations (t = 1 d @ 40° C.)” value [1] does the source give for `CC=CC=CC(=O)O.COc1ccc2c3c([nH]c2c1)CCN(C)CC3` [Experiment 4-Sample G] here?
The value was “Suspension”.

What about the “Observations (t = 10 d @ 40° C.)” value [1] of the same compound?
The value was “Suspension”.

And the “Observations (t = 0 @ 40° C.)” value [1]?
The value was “Suspension”.

And the “XRPD (IPC, 6 d, wet)” value [1, 3]?
The value was “Form A”.

And the “XRPD (post oven dried)” value [1, 3]?
Its value is “Form A”.

For `C/C=C/C=C/C(=O)O.COc1ccc2c3c([nH]c2c1)CCN(C)CC3` [Experiment 4-Sample H], which “Observations (t = 1 d @ 40° C.)” value [1] is on record?
The value was “Suspension”.

And the “Observations (t = 10 d @ 40° C.)” value [1]?
The value was “Suspension”.

What about the “Observations (t = 0 @ 40° C.)” value [1] of the same compound?
The value was “Suspension”.

And the “XRPD (IPC, 6 d, wet)” value [1, 3]?
Its value is “Pattern #3”.

What about the “XRPD (post oven dried)” value [1, 3] of the same compound?
The value was “Form A”.

Which “Observations (t = 1 d @ 40° C.)” value [1] does the source give for `CC=CC=CC(=O)O.COc1ccc2c3c([nH]c2c1)CCN(C)CC3` [Experiment 4-Sample I] here?
The value was “Suspension”.

And the “Observations (t = 10 d @ 40° C.)” value [1]?
Its value is “Suspension”.

What about the “Observations (t = 0 @ 40° C.)” value [1] of the same compound?
Its value is “Suspension”.

What about the “XRPD (IPC, 6 d, wet)” value [1, 3] of the same compound?
The value was “Form A”.

What about the “XRPD (post oven dried)” value [1, 3] of the same compound?
The value was “Form A”.

With `CC=CC=CC(=O)O.COc1ccc2c3c([nH]c2c1)CCN(C)CC3` [Experiment 4-Sample J] as the compound, how does the “Observations (t = 1 d @ 40° C.)” value [1] read?
Its value is “Suspension”.

What about the “Observations (t = 10 d @ 40° C.)” value [1] of the same compound?
The value was “Suspension”.

What about the “Observations (t = 0 @ 40° C.)” value [1] of the same compound?
Its value is “Suspension”.

What about the “XRPD (IPC, 6 d, wet)” value [1, 3] of the same compound?
Its value is “Form A”.

What about the “XRPD (post oven dried)” value [1, 3] of the same compound?
Its value is “Form A”.

Which “Observations (t = 1 d @ 40° C.)” value [1] does the source give for `CC=CC=CC(=O)O.COc1ccc2c3c([nH]c2c1)CCN(C)CC3` [Experiment 4-Sample K] here?
Its value is “Suspension”.

And the “Observations (t = 10 d @ 40° C.)” value [1]?
The value was “Suspension”.

What about the “Observations (t = 0 @ 40° C.)” value [1] of the same compound?
The value was “Suspension”.

And the “XRPD (IPC, 6 d, wet)” value [1, 3]?
The value was “Form A”.

And the “XRPD (post oven dried)” value [1, 3]?
Its value is “Form A”.

What does the source list for `CC=CC=CC(=O)O.COc1ccc2c3c([nH]c2c1)CCN(C)CC3` [Experiment 4-Sample L]?
Observations (t = 1 d @ 40° C.) [1]: Suspension; Observations (t = 10 d @ 40° C.) [1]: Suspension; Observations (t = 0 @ 40° C.) [1]: Suspension; XRPD (IPC, 6 d, wet) [1, 3]: Form A; XRPD (post oven dried) [1, 3]: Form A

For `C/C=C/C=C/C(=O)O.COc1ccc2c3c([nH]c2c1)CCN(C)CC3` [Experiment 4-Sample M], which “Observations (t = 1 d @ 40° C.)” value [1] is on record?
Its value is “Suspension”.

What about the “Observations (t = 10 d @ 40° C.)” value [1] of the same compound?
Its value is “Suspension”.

What about the “Observations (t = 0 @ 40° C.)” value [1] of the same compound?
The value was “Suspension”.

What about the “XRPD (IPC, 6 d, wet)” value [1, 3] of the same compound?
The value was “Form A”.

What about the “XRPD (post oven dried)” value [1, 3] of the same compound?
The value was “Form A”.

What does the source list for `CC=CC=CC(=O)O.COc1ccc2c3c([nH]c2c1)CCN(C)CC3` [Experiment 4-Sample N]?
Observations (t = 1 d @ 40° C.) [1]: Suspension; Observations (t = 10 d @ 40° C.) [1]: Suspension; Observations (t = 0 @ 40° C.) [1]: Suspension; XRPD (IPC, 6 d, wet) [1, 3]: Form A; XRPD (post oven dried) [1, 3]: Form A

Which “Observations (t = 1 d @ 40° C.)” value [1] does the source give for `C/C=C/C=C/C(=O)O.COc1ccc2c3c([nH]c2c1)CCN(C)CC3` [Experiment 4-Sample O] here?
Its value is “Suspension”.

What about the “Observations (t = 10 d @ 40° C.)” value [1] of the same compound?
Its value is “Suspension”.

What about the “Observations (t = 0 @ 40° C.)” value [1] of the same compound?
The value was “Suspension”.

What does the source list for `C/C=C/C=C/C(=O)O.COc1ccc2c3c([nH]c2c1)CCN(C)CC3` [Experiment 4-Sample P]?
Observations (t = 1 d @ 40° C.) [1]: Suspension; Observations (t = 10 d @ 40° C.) [1]: Suspension; Observations (t = 0 @ 40° C.) [1]: Suspension; XRPD (IPC, 6 d, wet) [1, 3]: Form A; XRPD (post oven dried) [1, 3]: Form A

With `C/C=C/C=C/C(=O)O.COc1ccc2c3c([nH]c2c1)CCN(C)CC3` [Experiment 4-Sample Q] as the compound, how does the “Observations (t = 1 d @ 40° C.)” value [1] read?
The value was “Suspension”.

And the “Observations (t = 10 d @ 40° C.)” value [1]?
The value was “Suspension”.

And the “Observations (t = 0 @ 40° C.)” value [1]?
The value was “Suspension”.

And the “XRPD (IPC, 6 d, wet)” value [1, 3]?
The value was “Form A”.

And the “XRPD (post oven dried)” value [1, 3]?
Its value is “Form A”.

Which “Observations (t = 1 d @ 40° C.)” value [1] does the source give for `C/C=C/C=C/C(=O)O.COc1ccc2c3c([nH]c2c1)CCN(C)CC3` [Experiment 4-Sample R] here?
The value was “Suspension”.

What about the “Observations (t = 10 d @ 40° C.)” value [1] of the same compound?
The value was “Suspension”.

And the “Observations (t = 0 @ 40° C.)” value [1]?
Its value is “Suspension”.

What about the “XRPD (IPC, 6 d, wet)” value [1, 3] of the same compound?
Its value is “Pattern #4”.

What about the “XRPD (post oven dried)” value [1, 3] of the same compound?
The value was “Form A”.

What does the source list for `CC=CC=CC(=O)O.COc1ccc2c3c([nH]c2c1)CCN(C)CC3` [Experiment 9-Sample C]?
XRPD (post Filter dried) ([1]; Experiment 9, suspension equilibration at 40° C., filter dried): Form A; XRPD (IPC, 5 d, wet) ([1]; Experiment 9, suspension equilibration at 40° C., targets Pattern #3, #4, #5): Form A

For `COc1ccc2c3c([nH]c2c1)CCN(C)CC3.O=C(O)c1ccccc1` [Tabernanthalog• Benzoate], which “DVS 0 to 90 to 0% RH (dm/dt <0.002%), mass change” value (from here on “DVS 0 to 90 to 0% RH … mass change”) ([2]; desorption, 0.0% RH) is on record?
The value was −0.037%.

What about the “DVS 0 to 90 to 0% RH … mass change” value ([2]; desorption, 5.0% RH) of the same compound?
Its value is −0.034%.

And the “DVS 0 to 90 to 0% RH … mass change” value ([2]; desorption, 10.0% RH)?
Its value is −0.032%.

What about the “DVS 0 to 90 to 0% RH … mass change” value ([2]; desorption, 15.0% RH) of the same compound?
Its value is −0.032%.

And the “DVS 0 to 90 to 0% RH … mass change” value ([2]; desorption, 20.0% RH)?
The value was −0.029%.

And the “DVS 0 to 90 to 0% RH … mass change” value ([2]; desorption, 25.0% RH)?
Its value is −0.028%.

And the “DVS 0 to 90 to 0% RH … mass change” value ([2]; desorption, 30.0% RH)?
Its value is −0.023%.

And the “DVS 0 to 90 to 0% RH … mass change” value ([2]; desorption, 40.0% RH)?
The value was −0.018%.

And the “DVS 0 to 90 to 0% RH … mass change” value ([2]; desorption, 50.0% RH)?
The value was −0.014%.

And the “DVS 0 to 90 to 0% RH … mass change” value ([2]; desorption, 60.0% RH)?
The value was −0.001%.

What about the “DVS 0 to 90 to 0% RH … mass change” value ([2]; desorption, 70.0% RH) of the same compound?
Its value is 0.034%.

What about the “DVS 0 to 90 to 0% RH … mass change” value ([2]; desorption, 80.0% RH) of the same compound?
Its value is 0.063%.

What about the “DVS 0 to 90 to 0% RH … mass change” value ([2]; desorption, 90.0% RH) of the same compound?
The value was 0.118%.

What about the “DVS 0 to 90 to 0% RH … mass change” value ([2]; sorption, 0.0% RH) of the same compound?
Its value is 0.00%.

What about the “DVS 0 to 90 to 0% RH … mass change” value ([2]; sorption, 5.0% RH) of the same compound?
The value was −0.001%.

And the “DVS 0 to 90 to 0% RH … mass change” value ([2]; sorption, 10.0% RH)?
Its value is 0.002%.

What about the “DVS 0 to 90 to 0% RH … mass change” value ([2]; sorption, 15.0% RH) of the same compound?
The value was −0.002%.

What about the “DVS 0 to 90 to 0% RH … mass change” value ([2]; sorption, 20.0% RH) of the same compound?
Its value is −0.003%.

What about the “DVS 0 to 90 to 0% RH … mass change” value ([2]; sorption, 25.0% RH) of the same compound?
Its value is −0.002%.

And the “DVS 0 to 90 to 0% RH … mass change” value ([2]; sorption, 30.0% RH)?
The value was 0.002%.

And the “DVS 0 to 90 to 0% RH … mass change” value ([2]; sorption, 40.0% RH)?
The value was 0.002%.

And the “DVS 0 to 90 to 0% RH … mass change” value ([2]; sorption, 50.0% RH)?
Its value is 0.006%.

And the “DVS 0 to 90 to 0% RH … mass change” value ([2]; sorption, 60.0% RH)?
The value was 0.009%.

What about the “DVS 0 to 90 to 0% RH … mass change” value ([2]; sorption, 70.0% RH) of the same compound?
The value was 0.009%.

And the “DVS 0 to 90 to 0% RH … mass change” value ([2]; sorption, 80.0% RH)?
Its value is 0.046%.

What about the “DVS 0 to 90 to 0% RH … mass change” value ([2]; sorption, 90.0% RH) of the same compound?
Its value is 0.118%.
